The numbers were not newly measured in US20040143023A1, “Materials and methods for synthesizing stilbenes” (priority 2000, published 2004), which cites them from elsewhere.

The conditions of data set [1]: in water and saline.
In data set [2] the test system is P388 murine leukaemia cell line. The note with it: cell line not restated for the trans isomer.

Structures are written as SMILES.

With `COc1ccc(/C=C\c2cc(OC)c(OC)c(OC)c2)cc1O` [cis-combretastatin A-4, Z-1-(3′-Hydroxy-4′-methoxyphenyl)-2-(3″,4″,5″-trimethoxyphenyl)ethene], the “toxicity toward tumour vasculature” value with tumour vasculature is “potent and selective toxicity”. For the same molecule, in data set [1], the solubility result is recorded as “low solubility”. With `COc1ccc(/C=C/c2cc(OC)c(OC)c(OC)c2)cc1O` [trans-combretastatin A-4, E-1-(3′-Hydroxy-4′-methoxy)-2-(Trimethoxyphenyl)-2-(3″,4″,5″-trimethoxyphenyl)ethene], in data set [2], the “concentration range in which cell growth is inhibited” value is listed as “millimblar range”.
